The values below come from ChEMBL document CHEMBL1121687, “2-Benzodioxinylaminoethanols: a new class of beta-adrenergic blocking and antihypertensive agents” (J Med Chem, 1981).

For experiment [1], the target named is Beta-1 adrenergic receptor (Cavia porcellus, UniProt B0FL73). Nature of the experiment: (§1) Antagonist activity of compound against Beta-1 adrenergic receptor in isolated guinea pig left atria. Type of experiment: functional. To be noted: read-out: pA2 app (converted).
Experiment [2] concerns the target Beta-1 adrenergic receptor (Cavia porcellus) (UniProt B0FL73). Described as §1. Type of experiment: functional.
For experiment [3], the system named is Rattus norvegicus. Nature of the experiment: Duration of action of 10 mg/kg intravenous dose of compound was determined in SHR test for antihypertensive activity in rats. Type of experiment: functional.
Experiment [4] relates to Rattus norvegicus. Briefly: Change in diastolic blood pressure in anesthetized spontaneous hypertensive rats when 10 mg/kg of compound was administered intravenously. Type of experiment: functional, Artery. Particulars: route intravenous.
The test system of experiment [5] is Rattus norvegicus. Briefly: Change in systolic blood pressure in anesthetized spontaneous hypertensive rats when 10 mg/kg of compound was administered intravenously. To be noted: route intravenous. Type of experiment: functional, Artery.
A further experiment relates to Canis lupus familiaris. Nature of the experiment: Dose required to induce at least 50% inhibition of the isoprenaline-induced effect, administered intravenously.
The target of experiment [6] is Beta-2 adrenergic receptor (Cavia porcellus) (UniProt Q8K4Z4). Briefly: Antagonist activity of compound against Beta-2 adrenergic receptor in isolated guinea pig trachea; Inactive at a concentration of 10e-4 M/L. Type of experiment: functional, tissue-based.
Chain of Beta-2 adrenergic receptor (Cavia porcellus) (UniProt Q8K4Z4) (Q8K4Z4 whole entry, looked up): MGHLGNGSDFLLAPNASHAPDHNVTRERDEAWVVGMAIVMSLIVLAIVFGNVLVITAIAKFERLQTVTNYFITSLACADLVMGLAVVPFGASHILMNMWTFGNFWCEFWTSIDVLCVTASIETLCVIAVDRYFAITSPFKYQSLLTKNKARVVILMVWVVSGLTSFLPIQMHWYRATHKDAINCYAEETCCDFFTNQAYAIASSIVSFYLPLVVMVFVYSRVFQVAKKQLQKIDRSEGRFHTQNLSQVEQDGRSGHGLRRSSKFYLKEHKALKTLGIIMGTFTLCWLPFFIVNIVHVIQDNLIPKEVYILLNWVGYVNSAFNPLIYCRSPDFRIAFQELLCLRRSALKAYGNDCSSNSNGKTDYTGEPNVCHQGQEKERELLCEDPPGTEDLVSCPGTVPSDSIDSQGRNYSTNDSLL
The test system of experiment [7] is Rattus norvegicus. Nature of the experiment: Duration of action of 2 mg/kg intravenous dose of compound was determined in SHR test for antihypertensive activity in rats. Type of experiment: functional.
In experiment [8] the test system is Rattus norvegicus. Nature of the experiment: Duration of action of 5 mg/kg intravenous dose of compound was determined in SHR test for antihypertensive activity in rats. Type of experiment: functional.
Experiment [9] concerns Rattus norvegicus. Nature of the experiment: Change in diastolic blood pressure in anesthetized spontaneous hypertensive rats when 2 mg/kg of compound was administered intravenously. The class given is functional, Artery. Particulars: route intravenous.
In experiment [10] the test system is Rattus norvegicus. Nature of the experiment: Change in diastolic blood pressure in anesthetized spontaneous hypertensive rats when 5 mg/kg of compound was administered intravenously. Type of experiment: functional, Artery. Particulars: route intravenous.
Experiment [11] has as its system Rattus norvegicus. Nature of the experiment: Change in systolic blood pressure in anesthetized spontaneous hypertensive rats when 2.5 mg/kg of compound was administered intravenously. To be noted: route intravenous.
Experiment [12] relates to Rattus norvegicus. The description is as above. To be noted: route intravenous. This is another data set of the same source.
The target of experiment [13] is Beta-2 adrenergic receptor (Cavia porcellus) (UniProt Q8K4Z4). Nature of the experiment: Antagonist activity of compound against Beta-2 adrenergic receptor in isolated guinea pig trachea; inactive. The class given is functional, tissue-based.
Experiment [14] deals with Rattus norvegicus. Briefly: Duration of action of 20 mg/kg intravenous dose of compound was determined in SHR test for antihypertensive activity in rats. The class given is functional.
In experiment [15] the test system is Rattus norvegicus. Briefly: Change in diastolic blood pressure in anesthetized spontaneous hypertensive rats when 20 mg/kg of compound was administered intravenously. The class given is functional, Artery. Particulars: route intravenous.
The test system of experiment [16] is Rattus norvegicus. Nature of the experiment: Change in systolic blood pressure in anesthetized spontaneous hypertensive rats when 20 mg/kg of compound was administered intravenously. Type of experiment: functional, Artery. Particulars: route intravenous.
Experiment [17] concerns Beta-2 adrenergic receptor (Cavia porcellus). Nature of the experiment: Antagonist activity of compound against beta-2 adrenergic receptor in isolated guinea pig trachea; Inactive at a concentration of 10e-4 M/L.
The species entered for experiment [18] is Rattus norvegicus. Briefly: Duration of action of compound was determined for antihypertensive action in rats. Type of experiment: functional.
Experiment [19] has as its target Beta-2 adrenergic receptor (Cavia porcellus) (UniProt Q8K4Z4). Briefly: Antagonist activity of compound (10e-4 mol/L) against beta 2-adrenergic receptor in isolated guinea pig trachea; Inactive at a concentration of 10e-4 M/L. The class given is functional, tissue-based.
Experiment [20] relates to Rattus norvegicus. Nature of the experiment: Change in systolic blood pressure in anesthetized spontaneous hypertensive rats when 5 mg/kg of compound was administered intravenously. The class given is functional, Artery. Particulars: route intravenous.

Activity calls are given as the source filed them. No cut-off for these calls is given here. Where only a bound is given, the exact number is not on record here.

Chain of Beta-1 adrenergic receptor (B0FL73 whole entry): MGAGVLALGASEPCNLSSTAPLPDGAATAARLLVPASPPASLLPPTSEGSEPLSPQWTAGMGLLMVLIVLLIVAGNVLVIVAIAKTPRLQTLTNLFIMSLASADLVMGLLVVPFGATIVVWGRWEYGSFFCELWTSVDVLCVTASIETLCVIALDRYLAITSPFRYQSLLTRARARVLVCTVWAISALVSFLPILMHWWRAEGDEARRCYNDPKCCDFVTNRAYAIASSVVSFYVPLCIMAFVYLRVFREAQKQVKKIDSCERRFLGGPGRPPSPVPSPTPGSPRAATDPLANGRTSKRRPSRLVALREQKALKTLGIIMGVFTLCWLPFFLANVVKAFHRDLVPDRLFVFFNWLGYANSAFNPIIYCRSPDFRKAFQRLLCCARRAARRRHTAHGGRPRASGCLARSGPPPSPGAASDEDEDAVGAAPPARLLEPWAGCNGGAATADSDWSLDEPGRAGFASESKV
Chain of Beta-1 adrenergic receptor (Cavia porcellus) (B0FL73 1-467): as the sequence (B0FL73 whole entry) above

For `CC(C)(C)NCC(O)C1=COc2ccccc2O1` (stereo not given), the Kb in experiment [1] was 8.51 nM. In addition, the pD2 app in experiment [2] was 4.8. In the experiment on Rattus norvegicus [3], this molecule yielded a Duration of action of 25 min. The “Change in BP” value in the experiment on Rattus norvegicus [4] was -57%; with Rattus norvegicus [5], -50%. Besides, in the experiment with Canis lupus familiaris, the Dose turned out to be 1 mg/kg.

For `Oc1nc2ccccc2n1C1CCN(CC(O)C2=COc3ccccc3O2)CC1` (stereo not given), the pD2 app in experiment [2] worked out at 4.89. Besides, the pD2 app result in experiment [6] was “inactive”. Also, the Duration of action in the experiment on Rattus norvegicus [7] and with Rattus norvegicus [8] was over 25 min throughout. Further, the “Change in BP” value is given as -43% in the experiment on Rattus norvegicus [9], -43% with Rattus norvegicus [10], -38% with Rattus norvegicus [11] and -38% with Rattus norvegicus [12]. In the experiment on Canis lupus familiaris, this molecule had a Dose of 1 mg/kg.

In the case of `OC(CN1CCN(c2cccc(C(F)(F)F)c2)CC1)C1=COc2ccccc2O1` (stereo not given), the pD2 app entry in experiment [13] is “inactive”. The molecule further returned a Duration of action in the experiment with Rattus norvegicus [14] of 20 min. The “Change in BP” value with Rattus norvegicus [15] was -83%; with Rattus norvegicus [16], -65%. This molecule also returned a Dose with Canis lupus familiaris of 10 mg/kg. Further, the pA2 app entry in [17] was “inactive”.

For the molecule `CC(=O)Nc1ccc(OCC(O)CNC(C)C)cc1` (stereo not given) [PRACTOLOL], the pD2 app entry in experiment [6] was “inactive”. In the experiment filed under Rattus norvegicus [18], the Duration of action came to 45 min. For the same molecule, the “Change in BP” value in the experiment on Rattus norvegicus [15] is -31%; in the experiment with Rattus norvegicus [16], -32%. In addition, the Dose in the experiment on Canis lupus familiaris is 2.5 mg/kg.

Take `COc1ccc(CCNCC(O)C2=COc3ccccc3O2)cc1OC` (stereo not given): the Duration of action in the experiment on Rattus norvegicus [7] and in the experiment with Rattus norvegicus [8] was over 25 min in each case. The “Change in BP” value in the experiment on Rattus norvegicus [9] is reported as -37%; in the experiment on Rattus norvegicus [12] it was -33%. The Dose in the experiment on Canis lupus familiaris was found to be 1 mg/kg.

Regarding `OC(CN1CCCCCC1)C1=COc2ccccc2O1` (stereo not given), in experiment [1], the Kb was 1170 nM. The same molecule registered a Duration of action with Rattus norvegicus [3] of 20 min. Also, the results for the “Change in BP” value with Rattus norvegicus [4] and in the experiment on Rattus norvegicus [5] were -57% and -44%, respectively. In the experiment with Canis lupus familiaris, this molecule had a Dose of 10 mg/kg.

With `OC(CN1CCCCC1)C1=COc2ccccc2O1` (stereo not given), the Kb in [1] is 617 nM. The molecule further came in with a Duration of action in the experiment with Rattus norvegicus [14] of 20 min. Further, the “Change in BP” value in the experiment on Rattus norvegicus [15] was -78%; in the experiment with Rattus norvegicus [16], -66%.

`COc1ccccc1N1CCN(CC(O)C2=COc3ccccc3O2)CC1` (stereo not given) showed a pD2 app in experiment [2] of 4.84. Also, the pA2 app result in experiment [19] was “inactive”. Moreover, the Duration of action in the experiment on Rattus norvegicus [7] and in the experiment on Rattus norvegicus [8] was over 45 min in each case. For the same molecule, the “Change in BP” value in the experiment on Rattus norvegicus [9], in the experiment with Rattus norvegicus [10], in the experiment with Rattus norvegicus [11] and in the experiment on Rattus norvegicus [12] was -41% each time.

`CC(C)NCC(O)C1=COc2ccccc2O1` (stereo not given) showed a Duration of action with Rattus norvegicus [8] of over 45 min. For the same molecule, the “Change in BP” value with Rattus norvegicus [10] is -60%; in the experiment on Rattus norvegicus [20], -49%.

On to `CC(C)NCC(O)COc1cccc2ccccc12` (stereo not given) [PROPRANOLOL], for which, in the experiment filed under Rattus norvegicus [18], the Duration of action is listed as 30 min. Further, the “Change in BP” value in the experiment with Rattus norvegicus [10] is given as -64%; in the experiment with Rattus norvegicus [20], -54%. The Dose in the experiment on Canis lupus familiaris stood at 0.25 mg/kg.
